# Values joined by “and” are separate entries in the source; they are usually repeats but may differ in a detail not shown here. Identical values can stand only once.
# How the values were obtained:
# Trypanosoma cruzi [1] = assay: (§1) DNDI: Chagas in Vitro; assay type: functional, organism-based, Tulahuen C4 (LacZ)
# Trypanosoma cruzi [2] = assay: as §1; assay type: functional, Tulahuen C4 (LacZ)
# Cytochrome P450 1A2 = target: T1, Cytochrome P450 1A2 (Homo sapiens, UniProt P05177); assay: (§2) DNDI: CYP Inhibition; assay type: ADME
# T1 sequence (P05177 whole entry): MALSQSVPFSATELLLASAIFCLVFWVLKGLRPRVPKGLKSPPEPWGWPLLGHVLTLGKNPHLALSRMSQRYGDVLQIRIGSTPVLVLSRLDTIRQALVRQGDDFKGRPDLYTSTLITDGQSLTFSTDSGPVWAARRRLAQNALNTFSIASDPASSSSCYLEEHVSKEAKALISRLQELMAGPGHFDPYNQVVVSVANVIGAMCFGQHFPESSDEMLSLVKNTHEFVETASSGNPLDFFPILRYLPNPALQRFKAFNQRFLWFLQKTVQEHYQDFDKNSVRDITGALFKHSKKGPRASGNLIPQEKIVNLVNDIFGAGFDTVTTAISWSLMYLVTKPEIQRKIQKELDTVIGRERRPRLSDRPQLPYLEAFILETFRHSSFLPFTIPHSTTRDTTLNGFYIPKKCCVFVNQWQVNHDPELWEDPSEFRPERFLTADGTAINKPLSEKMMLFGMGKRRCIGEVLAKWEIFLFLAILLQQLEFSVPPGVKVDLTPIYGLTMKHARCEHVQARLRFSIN
# Cytochrome P450 2D6 = Cytochrome P450 2D6 (Homo sapiens, UniProt P10635); assay: as §2; assay type: ADME
# [3] = DNDI: Cytotoxicity against L-6 rat myoblasts from skeletal musclE; details: L6 rat skeletal muscle myoblasts, IC50
# Leishmania donovani = assay: DNDI: Inhibition of formation of Leishmania donovani; assay type: functional, MHOM/ET/67/L82; parameters: concentration or dose not given beside the values
# [4] = DNDI: Lipophilicity (eLogD) at pH 5; assay type: physicochemical; details: buffer
# [5] = DNDI: Lipophilicity (eLogD) at pH 7.4; assay type: physicochemical; details: buffer
# [6] = DNDI: Lipophilicity (gLogD) at pH 3; details: buffer, pH 3
# [7] = DNDI: Lipophilicity (gLogD) at pH 7.4; details: buffer, pH 7.4
# [8] = DNDI: Lipophilicity in water; assay type: physicochemical
# [9] = (§3) DNDI: Metabolism; assay type: ADME, Canis lupus familiaris, Microsome; details: dog, microsomes
# [10] = as §3; assay type: ADME, Microsome; details: rat, microsomes
# [11] = DNDI: pKa; assay type: physicochemical; details: read-out: pKa(1)
# [12] = DNDI: Protein binding 10% serum RPMI; assay type: ADME; details: RPMI medium with 10% serum; read-out: % bound (converted)
# [13] = DNDI: Protein binding in dog plasma; assay type: ADME, cell-free, Canis lupus familiaris; details: read-out: % bound
# [14] = DNDI: Protein binding in human liver microsomes; assay type: ADME, Microsome; details: read-out: % bound (converted)
# [15] = DNDI: Protein binding in human plasma; assay type: ADME, cell-free; details: read-out: % bound
# [16] = DNDI: Protein binding in mouse plasma; assay type: ADME, cell-free; details: read-out: % bound
# [17] = DNDI: Protein binding in rat plasma; assay type: ADME, cell-free; details: read-out: % bound
# [18] = DNDI: Solubility in 0.01M HCl at pH 2 determined by nephelometry
# [19] = DNDI: Solubility in phosphate buffer at pH 6.5 determined by nephelometry
# [20] = DNDI: Solubility, 24 hour, 20 mM Citrate - pH 3, 37C; assay type: physicochemical; details: 20 mM citrate buffer, read-out: Equilibrium
# [21] = DNDI: Solubility, 24 hour, 50 mM Phosphate - pH 2, 37C; assay type: physicochemical; details: 50 mM phosphate buffer, read-out: Equilibrium
# [22] = DNDI: Solubility, 24 hour, 50 mM phosphate - pH 7.4, 37C; assay type: physicochemical; details: 50 mM phosphate buffer, read-out: Equilibrium
# [23] = DNDI: Solubility, 24 hour, FaSSIF, 37C; assay type: physicochemical; details: read-out: Equilibrium
# [24] = DNDI: Solubility, 24 hour, FeSSIF, 37C; assay type: physicochemical; details: read-out: Equilibrium
# [25] = DNDI: Solubility, 24 hour, SGF, 37C; assay type: physicochemical; details: read-out: Equilibrium
# [26] = (§4) DNDI: Stability, 4 hour; assay type: ADME, tissue-based, Canis lupus familiaris; details: dog, blood
# [27] = as §4; assay type: ADME, tissue-based; details: blood
# [28] = as §4; assay type: ADME, cell-free, Canis lupus familiaris; details: dog, plasma
# [29] = as §4; assay type: ADME, cell-free; details: plasma
# in vitro [30] = details: human, microsomes
# in vitro [31] = details: human, microsomes; remark: listed apart in the source
# in vitro [32] = details: mouse, microsomes
# in vitro [33] = details: mouse, microsomes; remark: listed apart in the source
# Cytochrome P450 2D6, sequence (P10635 whole entry): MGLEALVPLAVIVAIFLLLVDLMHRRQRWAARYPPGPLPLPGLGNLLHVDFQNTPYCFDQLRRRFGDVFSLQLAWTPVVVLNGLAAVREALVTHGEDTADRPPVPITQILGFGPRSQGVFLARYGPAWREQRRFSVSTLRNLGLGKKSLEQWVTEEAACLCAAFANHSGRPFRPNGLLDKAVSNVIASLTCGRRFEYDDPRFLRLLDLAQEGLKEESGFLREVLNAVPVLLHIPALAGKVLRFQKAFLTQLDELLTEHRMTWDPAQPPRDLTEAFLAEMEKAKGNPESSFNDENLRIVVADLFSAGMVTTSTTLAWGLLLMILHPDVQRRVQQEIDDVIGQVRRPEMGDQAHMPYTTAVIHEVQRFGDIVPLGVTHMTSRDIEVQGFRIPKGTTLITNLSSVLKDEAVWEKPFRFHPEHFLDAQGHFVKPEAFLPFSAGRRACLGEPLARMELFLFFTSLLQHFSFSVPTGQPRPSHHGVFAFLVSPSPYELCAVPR
compound,measurement,setting,value
FC(F)(F)c1ccc(N(c2cccnc2)C2CCN(c3ccc(C(F)(F)F)cn3)CC2)cc1,IC50,Trypanosoma cruzi [1],0.017 µM
same,IC50,"Trypanosoma cruzi [1]; Trypanosoma cruzi, Tulahuen C4 (LacZ)",0.014 µM
same,IC90,Trypanosoma cruzi [2],0.031 µM and 0.025 µM
same,IC50,Cytochrome P450 1A2,> 20 µM
same,IC50,Cytochrome P450 2D6,> 20 µM
same,IC50,[3],> 100 µM
same,% inhibition,Leishmania donovani,37.9%
same,chromatographic logD,[4],> 6.07
same,chromatographic logD,[5],> 6.05
same,chromatographic logD,[6],5
same,chromatographic logD,[7],> 5.3
same,logD,[8],> 5.95
same,half-life,[9],1.22 h
same,microsomal CLint,[9],24 µL/min/mg
same,half-life,[10],1.92 h
same,microsomal CLint,[10],15 µL/min/mg
same,pKa,[11],2.41
same,fraction unbound,[12],0.004
same,fraction unbound,[13],0.01
same,fraction unbound,[14],0.002
same,fraction unbound,[15],< 0.001
same,fraction unbound,[16],< 0.001
same,fraction unbound,[17],< 0.001
same,solubility kinetic,[18],> 100 µg/mL
same,solubility kinetic,[19],< 1.6 µg/mL
same,solubility thermodynamic at 24 h,[20],53.1 µg/mL
same,solubility thermodynamic at 24 h,[21],1430 µg/mL
same,solubility thermodynamic at 24 h,[22],< 0.25 µg/mL
same,solubility thermodynamic at 24 h,[23],< 0.25 µg/mL
same,solubility thermodynamic at 24 h,[24],12.7 µg/mL
same,solubility thermodynamic at 24 h,[25],9680 µg/mL
same,remaining at 4 h,[26],108%
same,remaining at 4 h,[27]; human,101%
same,remaining at 4 h,[27]; rat,115%
same,remaining at 4 h,[28],102%
same,remaining at 4 h,[29]; human,97%
same,remaining at 4 h,[29]; rat,96%
same,half-life,in vitro [30],0.75 h
same,microsomal CLint,in vitro [31],39 µL/min/mg
same,half-life,in vitro [32],1.17 h
same,microsomal CLint,in vitro [33],25 µL/min/mg

# From ChEMBL document CHEMBL3137440, “DNDi T. cruzi fenarimol series dataset from which preclinical candidate EPL-BS0967 was identified (see also related datasets: CHEMBL3137386 and CHEMBL2448688)”
